Measurements as given in patent publication US20240252503A1, “METHODS OF TREATMENT” (Arena Pharmaceuticals, Inc., priority 2021, published 2024).

What was measured:
human 5-HT2A = human 5-HT2A (Homo sapiens, UniProt P28223); assay: Receptor affinity, 5-HT2A; assay type: binding
Description: (§1) M1 refers to N-(4-(2-(2-hydroxyethylamino)ethoxy)-3-(1-methyl-1H-pyrazol-5-yl)phenyl)-3-methoxybenzamide. M2 refers to N-(4-(2-aminoethoxy)-3-(1-methyl-1H-pyrazol-5-yl)phenyl)-3-methoxybenzamide.

5-HT2B receptor = 5-HT2B receptor (Homo sapiens, UniProt P41595); assay: Receptor affinity, 5-HT2B; assay type: binding
Description: as §1

5-HT2C receptor = biological target: T1, 5-HT2C receptor (Homo sapiens, UniProt P28335); assay: Receptor affinity, 5-HT2C; assay type: binding
T1 sequence (P28335 33-458): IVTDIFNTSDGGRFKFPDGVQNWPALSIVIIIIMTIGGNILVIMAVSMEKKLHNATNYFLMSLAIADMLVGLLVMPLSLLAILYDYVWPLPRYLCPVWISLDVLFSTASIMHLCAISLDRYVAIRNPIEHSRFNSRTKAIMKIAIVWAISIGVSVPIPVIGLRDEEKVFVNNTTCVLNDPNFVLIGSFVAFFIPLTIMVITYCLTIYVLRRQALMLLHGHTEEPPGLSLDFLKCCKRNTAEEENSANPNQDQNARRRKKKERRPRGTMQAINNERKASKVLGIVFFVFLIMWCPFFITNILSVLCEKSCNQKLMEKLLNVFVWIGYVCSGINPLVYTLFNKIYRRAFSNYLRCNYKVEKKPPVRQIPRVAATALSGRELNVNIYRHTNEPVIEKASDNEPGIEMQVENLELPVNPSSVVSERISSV
Description: as §1

[1] = test system: cold-induced vasoconstriction in the rabbit foot; assay: Intra-arterial dosing in anesthetized rabbits, peripheral cooling of hind foot; assay type: in vivo, New Zealand White rabbit; details: intra-arterial 0.05 then 0.1 mg/kg; left hind foot in 40° C., then 15° C. water bath
Protocol: A study was conducted to assess the effects of intra-arterial dosing of Compound 1 and ketanserin on body temperature, peripheral cooling and peripheral blood flow in naïve anesthetized male New Zealand White rabbits.
Formulations of each test compound were prepared by adding saline and vortexing and sonicating until a clear solution was obtained.
Rabbits were sedated with ketamine/xylazine (25/5 mg/kg, subcutaneous) and then intubated and anesthetized with 1-2% isoflurane driven by 100% oxygen (1-2 L/min). Animals were mechanically ventilated and normal body temperature (38-40° C.) was maintained using an external source of heat (e.g., circulating water blanket, heated surgery table). The femoral incision site was infiltrated with 1 mg/kg ID bupivacaine. A catheter for dosing was placed via cutdown in the left femoral artery. […]
At the start of Dose 1 administration, each rabbit's left hind foot was placed in a water bath set to maintain approximately 40° C. […] At 30 minutes post dose start of Dose 2, in Groups 4-6 only, each rabbit's left hind foot was removed to room temperature, monitored and dosed for an additional 15 minutes.
Average percent change of each temperature and blood flow between baseline and each minute of dose administration was determined relative to time-matched vehicle control data.

[2] = Phase 1 single-dose escalation study, pharmacokinetics; assay type: in vivo, human; details: for half-life compared with parent compound: after single oral dose of Compound 1, healthy subjects
Protocol: (§2) A phase 1, randomized, double-blind, placebo-controlled, single-dose escalation study was conducted to assess the tolerability, PK, and PD of Compound 1 doses of 1 to 320 mg administered orally as a single dose to a total of 91 healthy subjects.

[3] = test system: 5-HT-mediated amplification of platelet aggregation; assay: Phase 1 single-dose escalation study, platelet aggregation with ADP with and without 5-HT; assay type: in vivo, human; details: single oral doses above 1 mg
Protocol: as §2
(§3) PD assessment consisted of measuring pre- and post-dose platelet aggregation using an in vitro assay with ADP with and without 5-HT. The degree of thrombin receptor activating peptide (TRAP)-induced platelet aggregation inhibition between groups was similar. However, Compound 1 inhibited 5-HT-mediated amplification of platelet aggregation at doses above 1 mg.

[4] = test system: thrombin receptor activating peptide (TRAP)-induced platelet aggregation; assay: Phase 1 single-dose escalation study, TRAP-induced platelet aggregation; assay type: in vivo, human; details: single oral dose, versus placebo groups
Protocol: as §2, §3

[5] = Phase 1 multiple-ascending dose study, pharmacokinetics; assay type: in vivo, human; details: for accumulation ratio as measured by AUCtau: 60 and 80 mg Compound 1 TID, after 7 days
Protocol: (§4) A phase 1, randomized, double-blind, placebo-controlled, multiple-ascending dose-escalation study was conducted to assess the safety, tolerability, PD, and steady state PK of Compound 1 from 5 to 80 mg administered orally TID for 7 days in a total of 50 healthy subjects.

[6] = test system: ex vivo 5-HT-mediated amplification of platelet aggregation; assay: Phase 1 multiple-ascending dose study, ex vivo platelet aggregation; assay type: in vivo, human
Protocol: as §4
Administration of Compound 1 inhibited ex vivo 5-HT-mediated amplification of platelet aggregation.

[7] = test system: Raynaud phenomenon attacks; details: intravenous; cited from earlier work
[8] = test system: Raynaud phenomenon attacks; details: intravenous, over 9 weeks, cited from earlier work

Chain of 5-HT2B receptor (P41595 whole entry): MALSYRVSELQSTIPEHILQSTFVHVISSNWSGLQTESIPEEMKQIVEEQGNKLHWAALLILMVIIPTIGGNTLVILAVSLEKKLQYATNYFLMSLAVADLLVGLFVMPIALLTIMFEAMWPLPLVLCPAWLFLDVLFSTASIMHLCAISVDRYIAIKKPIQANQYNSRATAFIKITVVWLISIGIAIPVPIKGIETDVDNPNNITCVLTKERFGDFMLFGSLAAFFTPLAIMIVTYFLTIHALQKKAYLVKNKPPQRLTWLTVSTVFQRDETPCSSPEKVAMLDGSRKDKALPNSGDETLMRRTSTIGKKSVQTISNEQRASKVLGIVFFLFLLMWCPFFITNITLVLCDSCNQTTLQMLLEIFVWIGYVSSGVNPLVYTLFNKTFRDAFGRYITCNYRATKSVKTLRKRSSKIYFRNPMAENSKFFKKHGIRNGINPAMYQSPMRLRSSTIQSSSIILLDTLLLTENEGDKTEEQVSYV
Chain of human 5-HT2A (P28223 whole entry): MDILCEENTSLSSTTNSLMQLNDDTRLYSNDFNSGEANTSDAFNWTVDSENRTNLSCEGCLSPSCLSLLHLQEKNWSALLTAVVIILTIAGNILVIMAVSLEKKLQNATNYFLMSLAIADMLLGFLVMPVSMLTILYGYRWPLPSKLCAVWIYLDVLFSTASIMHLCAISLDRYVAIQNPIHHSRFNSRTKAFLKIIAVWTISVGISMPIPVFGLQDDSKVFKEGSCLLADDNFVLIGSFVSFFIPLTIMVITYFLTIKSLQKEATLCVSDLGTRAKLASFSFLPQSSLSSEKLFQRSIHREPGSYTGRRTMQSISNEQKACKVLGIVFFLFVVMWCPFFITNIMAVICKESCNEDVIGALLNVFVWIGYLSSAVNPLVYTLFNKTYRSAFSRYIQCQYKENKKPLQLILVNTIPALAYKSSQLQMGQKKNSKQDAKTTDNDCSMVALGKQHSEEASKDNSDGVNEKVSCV

affinity for human 5-HT2A (human 5-HT2A) | affinity for 5-HT2B receptor (5-HT2B receptor) | affinity for 5-HT2C receptor (5-HT2C receptor) | accumulation ratio as measured by AUCtau [5] | SMILES | effect on cold-induced vasoconstriction in the rabbit foot [1] | half-life compared with parent compound [2] | other results
high affinity | no appreciable affinity | no appreciable affinity |  | COc1cccc(C(=O)Nc2ccc(OCCN3CCOCC3)c(-c3ccnn3C)c2)c1 [Compound 1, 3-methoxy-N-[3-(2-methylpyrazol-3-yl)-4-(2-morpholin-4-ylethoxy)phenyl]benzamide] | partially reduced |  | half-life as Compound 1 dose was escalated ([2]; single oral dose 1 to 320 mg): half-life increased; dose proportionality of plasma exposure measures ([2]; single oral dose 1 to 320 mg, healthy subjects): greater than dose proportional; absorption ([2]; single oral dose 1 to 320 mg, healthy subjects, all doses): rapidly absorbed; 5-HT-mediated amplification of platelet aggregation [3]: inhibited; degree of TRAP-induced platelet aggregation inhibition between groups [4]: similar; dose proportionality of exposure as measured by AUC ([5]; 5 and 10 mg TID): dose proportional; absorption ([5]; 5 to 80 mg oral TID for 7 days, all doses): rapidly absorbed; dose proportionality of exposure as measured by AUC ([5]; 40, 60, and 80 mg TID, Day 1 and Day 7): greater than dose proportional; Cmax and AUC accumulation ratio ([5]; all doses, Day 7 compared with Day 1, TID for 7 days): less than 2; extent of inhibition of ex vivo 5-HT-mediated amplification of platelet aggregation ([6]; 60 mg and 80 mg doses, following dosing on Days 1, 4, and 7): essentially maximal; ex vivo 5-HT-mediated amplification of platelet aggregation ([6]; 5 to 80 mg oral TID for 7 days): inhibited
high affinity | no appreciable affinity | no appreciable affinity | approximately 2 | COc1cccc(C(=O)Nc2ccc(OCCNCCO)c(-c3ccnn3C)c2)c1 [Compound M1, N-(4-(2-(2-hydroxyethylamino)ethoxy)-3-(1-methyl-1H-pyrazol-5-yl)phenyl)-3-methoxybenzamide] |  | longer half-lives than the parent compound | 
high affinity | no appreciable affinity | no appreciable affinity | approximately 2 | COc1cccc(C(=O)Nc2ccc(OCCN)c(-c3ccnn3C)c2)c1 [Compound M2, N-(4-(2-aminoethoxy)-3-(1-methyl-1H-pyrazol-5-yl)phenyl)-3-methoxybenzamide] |  | longer half-lives than the parent compound | 
 |  |  |  | CCCCC[C@H](O)/C=C/[C@@H]1[C@H]2C/C(=C/CCCC(=O)O)O[C@H]2C[C@H]1O [epoprostenol] |  |  | frequency and duration of Raynaud phenomenon attacks [7]: reduced frequency and duration of Raynaud phenomenon attacks; time after the last infusion at which loss in clinical response was observed [7]: 8-10 weeks
 |  |  |  | CC#CCC(C)[C@H](O)/C=C/[C@@H]1[C@H]2C/C(=C/CCCC(=O)O)C[C@H]2C[C@H]1O (stereo partly drawn) [iloprost] |  |  | improvement of severity score ([8]; versus 19.7% in comparator): 34.8%; reduction of weekly Raynaud phenomenon attacks ([8]; versus 22.2% in comparator): 39.1%
 |  |  |  | O=C(c1ccc(F)cc1)C1CCN(CCn2c(=O)[nH]c3ccccc3c2=O)CC1 [ketanserin, reference compound] | partially reduced |  | 
